Experimental data: article PMC11747885, “Potent inhibitors of the human RNA ligase Rlig1 highlights its role in RNA integrity maintenance under oxidative cellular stress” (Chemical Science, 2025)
pEC50, pIC50: −log10 of the molar value. Values joined by “and” are separate entries in the source; they are usually repeats but may differ in a detail not shown here. Equal values may be shown once. “Also recorded” adds a separate entry of the source. Read-outs that look alike come from different tables or passages of the source.

Columns and labels:
[1] = biological target: T1, human DNA ligase 1 (hLig1) (Homo sapiens, UniProt P18858); experiment: DNA ligation assay with various hLig1 concentration at constant inhibitor concentration; assay type: biochemical; details: 30 min 37 °C; for DNA product formation: 10 µM compound, three replicates
T1 construct: made in house; host or cells: E. coli Rosetta BL21 (DE3), pET28a-hLig1
T1 sequence (P18858 whole entry): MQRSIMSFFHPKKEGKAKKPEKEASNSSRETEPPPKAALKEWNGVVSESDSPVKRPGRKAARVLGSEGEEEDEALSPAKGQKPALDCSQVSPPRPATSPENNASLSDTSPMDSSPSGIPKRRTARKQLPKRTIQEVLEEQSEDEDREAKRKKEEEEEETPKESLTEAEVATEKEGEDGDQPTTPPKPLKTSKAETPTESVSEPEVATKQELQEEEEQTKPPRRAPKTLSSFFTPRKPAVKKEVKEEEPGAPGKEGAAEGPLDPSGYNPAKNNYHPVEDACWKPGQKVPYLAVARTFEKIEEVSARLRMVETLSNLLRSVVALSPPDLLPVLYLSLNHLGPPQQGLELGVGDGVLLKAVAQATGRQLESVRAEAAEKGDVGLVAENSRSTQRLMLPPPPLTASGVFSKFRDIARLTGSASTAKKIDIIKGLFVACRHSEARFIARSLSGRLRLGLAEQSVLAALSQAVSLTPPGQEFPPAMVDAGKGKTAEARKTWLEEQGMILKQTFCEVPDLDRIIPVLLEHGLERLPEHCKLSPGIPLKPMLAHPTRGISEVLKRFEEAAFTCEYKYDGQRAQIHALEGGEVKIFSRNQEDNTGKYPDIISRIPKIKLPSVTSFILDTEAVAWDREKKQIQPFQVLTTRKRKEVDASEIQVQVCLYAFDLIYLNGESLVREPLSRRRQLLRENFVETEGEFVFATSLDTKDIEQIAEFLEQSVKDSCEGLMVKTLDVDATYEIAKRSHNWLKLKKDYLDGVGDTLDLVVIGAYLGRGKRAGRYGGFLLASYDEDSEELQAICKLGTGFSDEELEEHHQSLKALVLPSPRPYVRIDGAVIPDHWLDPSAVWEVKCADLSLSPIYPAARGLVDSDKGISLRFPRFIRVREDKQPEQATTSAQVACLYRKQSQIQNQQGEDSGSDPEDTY

Rlig1-AMP [2] = biological target: T2, Rlig1-AMP (Homo sapiens, UniProt Q8N999); experiment: Radioactive RNA ligation assay (hit validation, 10 µM test and IC50 determination); assay type: biochemical; details: for inhibition of Rlig1-AMP ligation (urea-PAGE): 10 μM compound; for pIC50: n = 3; for percentage inhibition (dose response curve for IC50): replicates I-III; for LogIC50 (best-fit value): log of µM; for Bottom (best-fit value) / Top (best-fit value): log(inhibitor) vs. response, variable slope (four parameters)
T2 construct: made in house; host or cells: E. coli BL21 (DE3), pET15b-Rlig1
T2 sequence (Q8N999 whole entry): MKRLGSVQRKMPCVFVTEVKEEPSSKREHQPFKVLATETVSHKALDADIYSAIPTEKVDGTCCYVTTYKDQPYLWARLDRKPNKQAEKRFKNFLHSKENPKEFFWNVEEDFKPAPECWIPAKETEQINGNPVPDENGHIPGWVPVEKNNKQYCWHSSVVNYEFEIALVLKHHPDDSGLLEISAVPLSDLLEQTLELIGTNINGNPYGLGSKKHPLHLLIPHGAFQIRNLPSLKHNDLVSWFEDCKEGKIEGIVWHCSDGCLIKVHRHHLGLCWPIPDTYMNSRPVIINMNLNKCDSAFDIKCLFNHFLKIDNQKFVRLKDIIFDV

HEK293 cells = experiment: Cell viability assay of HEK293 cells treated with inhibitors (CellTiter-Glo); details: for cytotoxicity (in words): HEK293, 24 h, up to 30 μM; for pEC50: HEK293, 24 h compound, highest concentration 30 μM, n = 3; for IC50 (Figure 3D: EC50 values for plot; log(inhibitor) vs. response -- Variable slope (four parameters)) / LogIC50 (log(inhibitor) vs. response -- Variable slope (four parameters)): HEK293 cell viability, fit per plate (3 plates, 4 technical replicates each); for IC50 (Figure 3D: EC50 values for plot; log(inhibitor) vs. response -- Variable slope (four parameters)): highest tested concentration 30 µM; for LogIC50 (log(inhibitor) vs. response -- Variable slope (four parameters)): log of [µM]
Rlig1-AMP [3] = biological target: T2, Rlig1-AMP; experiment: FRET-based high-throughput screening of inhibitors for Rlig1-AMP; assay type: biochemical; details: HTS hits; for Raw data [w Enyzm]: with enzyme; for Raw data [w/o Enzym]: without enzyme
[4] = DMSO; ref MedChemExpress; cited from earlier work
[5] = ultrasonic/warming, ref MedChemExpress, cited from earlier work
[6] = DMSO; ref MedChemExpress; cited from earlier work; remark: listed apart in the source
[7] = four-parameter fit, read-out: IC50 (best-fit value)
[8] = radioactive ligation assay, 500 nM Rlig1-AMP, 20 min 37 °C, read-out: IC50
[9] = difference of raw data without and with enzyme
[10] = difference of raw data w/o and w enzyme
[11] = normalised value of 1-D Distance

Nc1nc(Nc2ccc(NC(=O)c3ccc(Nc4ccnc5ccccc45)cc3)cc2)cc(C(F)(F)F)n1 [Compound 41]
effect on hLig1 activity (in words) ([1]; 10 μM compound, hLig1 titrated (500 nM to 31.3 nM)): least impact on hLig1 activity | DNA product formation ([1]; hlig1 0.0315 µM): 32.8195% and 34.8543% and 48.0642% | DNA product formation ([1]; hlig1 0.0625 µM): 59.0993% and 56.4484% and 66.8349% | DNA product formation ([1]; hlig1 0.5 µM): 87.3568% and 90.1164% and 79.5057% | inhibition of Rlig1-AMP ligation (urea-PAGE) (Rlig1-AMP [2]; 500 nM Rlig1-AMP, 20 min 37 °C): Ligation was inhibited; also recorded: fully inhibited | HillSlope (best-fit value) (Rlig1-AMP [2]; four-parameter fit): 6.706 | Span (best-fit value) (Rlig1-AMP [2]; four-parameter fit): 91.68 | pIC50 (Rlig1-AMP [2]; [7]): 5.10 | percentage inhibition (dose response curve for IC50) (Rlig1-AMP [2]; log Compound [µM] 0.273001): 1.895 and 15.4708 and 0.5134 | percentage inhibition (dose response curve for IC50) (Rlig1-AMP [2]; log Compound [µM] 0.574031): 11.1208 and 11.2726 and 0 | percentage inhibition (dose response curve for IC50) (Rlig1-AMP [2]; log Compound [µM] 0.875061): 30.9538 and 51.1087 and 45.619 | percentage inhibition (dose response curve for IC50) (Rlig1-AMP [2]; log Compound [µM] 1.17609): 95.8601 and 98.8258 and 95.9476 | percentage inhibition (dose response curve for IC50) (Rlig1-AMP [2]; log Compound [µM] 1.47712): 93.067 and 100 and 99.7336 | percentage inhibition (dose response curve for IC50) (Rlig1-AMP [2]; log Compound [µM] -0.0280287): 9.18 and 3.83 and 4.351 | percentage inhibition (dose response curve for IC50) (Rlig1-AMP [2]; log Compound [µM] -0.329059): 8.319 and 4.077 and 3.842 | percentage inhibition (dose response curve for IC50) (Rlig1-AMP [2]; log Compound [µM] -0.630089): 9.025 and 10.4021 and 1.823 | LogIC50 (best-fit value) (Rlig1-AMP [2]; four-parameter fit): 0.9022 | Bottom (best-fit value) (Rlig1-AMP [2]): 6.221 | Top (best-fit value) (Rlig1-AMP [2]): 97.9 | pIC50 (Rlig1-AMP [2]; [8]): 5.10 | cytotoxicity (in words) (HEK293 cells): comparatively high cytotoxicity | pEC50 (HEK293 cells): 5.25 | IC50 (Figure 3D: EC50 values for plot; log(inhibitor) vs. response -- Variable slope (four parameters)) (HEK293 cells): 5.211 µM and 5.311 µM and 6.697 µM | LogIC50 (log(inhibitor) vs. response -- Variable slope (four parameters)) (HEK293 cells): 0.717 and 0.7252 and 0.8259

CNc1nccc(Nc2ccc(NC(=O)c3ccc(Nc4ccnc5ccccc45)cc3)cc2)n1 [Compound 42]
DNA product formation ([1]; hlig1 0.0315 µM): 8.9605% and 14.7712% and 28.5706% | DNA product formation ([1]; hlig1 0.0625 µM): 20.859% and 38.2979% and 41.6376% | DNA product formation ([1]; hlig1 0.5 µM): 72.119% and 74.3311% and 77.4812% | inhibition of Rlig1-AMP ligation (urea-PAGE) (Rlig1-AMP [2]; 500 nM Rlig1-AMP, 20 min 37 °C): Ligation was inhibited; also recorded: fully inhibited | HillSlope (best-fit value) (Rlig1-AMP [2]; four-parameter fit): 5.584 | Span (best-fit value) (Rlig1-AMP [2]; four-parameter fit): 91.59 | pIC50 (Rlig1-AMP [2]; [7]): 5.48 | percentage inhibition (dose response curve for IC50) (Rlig1-AMP [2]; log Compound [µM] 0.273001): 16.0159 and 7.852 and 10.1751 | percentage inhibition (dose response curve for IC50) (Rlig1-AMP [2]; log Compound [µM] 0.574031): 79.3655 and 83.1907 and 44.7582 | percentage inhibition (dose response curve for IC50) (Rlig1-AMP [2]; log Compound [µM] 0.875061): 100 and 98.6279 and 97.3725 | percentage inhibition (dose response curve for IC50) (Rlig1-AMP [2]; log Compound [µM] 1.17609): 100 (2×) and 92.704 | percentage inhibition (dose response curve for IC50) (Rlig1-AMP [2]; log Compound [µM] 1.47712): 100 | percentage inhibition (dose response curve for IC50) (Rlig1-AMP [2]; log Compound [µM] -0.0280287): 9.717 and 4.5039 and 9.184 | percentage inhibition (dose response curve for IC50) (Rlig1-AMP [2]; log Compound [µM] -0.329059): 6.426 and 0 and 5.66 | percentage inhibition (dose response curve for IC50) (Rlig1-AMP [2]; log Compound [µM] -0.630089): 11.6754 and 8.294 and 11.6155 | LogIC50 (best-fit value) (Rlig1-AMP [2]; four-parameter fit): 0.5177 | Bottom (best-fit value) (Rlig1-AMP [2]): 7.458 | Top (best-fit value) (Rlig1-AMP [2]): 99.05 | pIC50 (Rlig1-AMP [2]; [8]): 5.48 | cytotoxicity (in words) (HEK293 cells): comparatively high cytotoxicity | pEC50 (HEK293 cells): 5.45 | IC50 (Figure 3D: EC50 values for plot; log(inhibitor) vs. response -- Variable slope (four parameters)) (HEK293 cells): 3.237 µM and 3.382 µM and 4.036 µM | LogIC50 (log(inhibitor) vs. response -- Variable slope (four parameters)) (HEK293 cells): 0.5101 and 0.5292 and 0.6059

Cc1cnc(NCCCN(C)C)c2c1[nH]c1ccc3cc(O)ccc3c12 [Intoplicine]
1-D Distance (Rlig1-AMP [3]; [9]): 1659 | Raw data [w Enyzm] (Rlig1-AMP [3]): 6875 | Raw data [w/o Enzym] (Rlig1-AMP [3]): 8534 | solubility [4]: 80 mg/mL and 229.59 mM

COc1cccc2c1C(=O)c1c(O)c3c(c(O)c1C2=O)C[C@@](O)(C(=O)CO)C[C@@H]3O[C@H]1C[C@H](N)[C@H](O[C@@H]2CCCCO2)[C@H](C)O1.Cl [Pirarubicin (Hydrochloride)]
1-D Distance (Rlig1-AMP [3]; [10]): 1020 | 1-D Distance.npi (Rlig1-AMP [3]; [11]): 86.4182 | Raw data [w Enyzm] (Rlig1-AMP [3]): 2238 | Raw data [w/o Enzym] (Rlig1-AMP [3]): 3258 | solubility, DMSO [5]: 20.83 mg/mL and 31.37 mM | solubility, H2O [5]: < 0.1 mg/mL

O=C(O)c1cc(O)c2c(c1)[C@H]([C@H]1c3cc(C(=O)O)cc(O)c3C(=O)c3c(O[C@@H]4O[C@H](CO)[C@@H](O)[C@H](O)[C@H]4O)cccc31)c1cccc(O[C@@H]3O[C@H](CO)[C@@H](O)[C@H](O)[C@H]3O)c1C2=O [Sennoside A]
1-D Distance (Rlig1-AMP [3]; [9]): 1736 | Raw data [w Enyzm] (Rlig1-AMP [3]): 4442 | Raw data [w/o Enzym] (Rlig1-AMP [3]): 6178 | solubility [4]: 250 mg/mL and 289.77 mM

O=C(O)c1cc(O)c2c(c1)[C@@H]([C@H]1c3cc(C(=O)O)cc(O)c3C(=O)c3c(O[C@@H]4O[C@H](CO)[C@@H](O)[C@H](O)[C@H]4O)cccc31)c1cccc(O[C@@H]3O[C@H](CO)[C@@H](O)[C@H](O)[C@H]3O)c1C2=O [Sennoside B]
1-D Distance (Rlig1-AMP [3]; [10]): 1108 | Raw data [w Enyzm] (Rlig1-AMP [3]): 3598 | Raw data [w/o Enzym] (Rlig1-AMP [3]): 4706 | solubility, DMSO [5]: 125 mg/mL and 144.89 mM

C[n+]1ccc(-c2c3nc(c(-c4cc[n+](C)cc4)c4ccc([nH]4)c(-c4cc[n+](C)cc4)c4nc(c(-c5cc[n+](C)cc5)c5ccc2[nH]5)C=C4)C=C3)cc1.Cc1ccc(S(=O)(=O)[O-])cc1.Cc1ccc(S(=O)(=O)[O-])cc1.Cc1ccc(S(=O)(=O)[O-])cc1.Cc1ccc(S(=O)(=O)[O-])cc1 [TMPyP4 tosylate]
1-D Distance (Rlig1-AMP [3]; [10]): 40 | 1-D Distance.npi (Rlig1-AMP [3]; [11]): 106.113 | Raw data [w Enyzm] (Rlig1-AMP [3]): 658 | Raw data [w/o Enzym] (Rlig1-AMP [3]): 698 | solubility, DMSO [5]: 10 mg/mL and 7.33 mM | solubility, H2O [5]: 25 mg/mL and 18.33 mM

CC1(C)CCC(C)(C)c2cc(NC(=O)c3ccc(C(=O)O)cc3)ccc21 [Tamibarotene]
1-D Distance (Rlig1-AMP [3]; [10]): 1704 | Raw data [w Enyzm] (Rlig1-AMP [3]): 8958 | Raw data [w/o Enzym] (Rlig1-AMP [3]): 10662 | solubility, DMSO [5]: 25.5 mg/mL and 72.56 mM

Cn1nc(-c2ccc(C(F)(F)F)cc2)nc2c(=O)n(C)c(=O)nc1-2 [Walrycin B]
solubility [6]: 11.5 mg/mL and 34.10 mM | 1-D Distance (Rlig1-AMP [3]; [10]): 868 | 1-D Distance.npi (Rlig1-AMP [3]; normalized value (npi)): 89.8871 | Raw data [w Enyzm] (Rlig1-AMP [3]): 16245 | Raw data [w/o Enzym] (Rlig1-AMP [3]): 17113

Heparin (Lithium salt)
1-D Distance (Rlig1-AMP [3]; [10]): 1112 | 1-D Distance.npi (Rlig1-AMP [3]; [11]): 83.0264 | Raw data [w Enyzm] (Rlig1-AMP [3]): 12003 | Raw data [w/o Enzym] (Rlig1-AMP [3]): 13115 | solubility, H2O [5]: H2O : 100 mg/mL (Need ultrasonic)
